Assay results taken from publication PMC10914731, “Homo-BacPROTAC-induced degradation of ClpC1 as a strategy against drug-resistant mycobacteria” (Nature Communications, 2024).
In brackets after ≈: the same amount, converted by molar mass. Several values for one entry are separate records, joined by “and”; a condition that tells them apart may be missing. Equal entries are not always repeated. Where two headings read alike, the source gives them in different places.

Assays:
in vitro = conditions: human; for Papp A→B: apical to basolateral
Summary of the method: (§1)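 Permeability across Caco-2 monolayers was measured in both directions, apical-to-basolateral and basolateral-to-apical, in 10^-6 cm s-1. Efflux ratio = P(B−A)/P(A−B). Intrinsic permeability is the mean of P(A−B) and P(B−A).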

Caco-2 monolayers = experiment: in vitro; conditions: mean value of P(A−B) and P(B−A)
Summary of the method: as §1

Msm 607 = experiment: microbe, parasite or virus in culture; format: cell-based
[1] = target: ClpC1 NTD protein (M. tuberculosis) (Mycobacterium tuberculosis, UniProt P9WPC9); experiment: biochemical; format: binding
[2] = target: ClpC1-NTD substrate, M. tuberculosis ClpC1P1P2 (Mycobacterium tuberculosis, UniProt P9WPC9); experiment: biochemical; format: biochemical; conditions: Mtb
[3] = format: in vitro ADME, Human; conditions: clearance in hepatocytes
[4] = test system: M. tuberculosis H37Rv (ATCC 27294); experiment: microbe, parasite or virus in culture; format: cell-based
Mycobacterium avium = experiment: microbe, parasite or virus in culture; format: cell-based
Enterobacter cloacae = experiment: MIC ESKAPES panel, Enterobacter cloacae; format: cell-based; conditions: Enterobacter cloacae
Description: (§2) Minimum inhibitory concentration (MIC) against ESKAPES panel of Gram positive and Gram negative pathogens (Enterococcus faecium, Staphylococcus aureus, Klebsiella pneumoniae, Acinetobacter baumannii, Pseudomonas aeruginosa, Enterobacter cloacae and Salmonella typhimurium [ESKAPES panel]) were determined at the FNDR by the standard broth dilution method [CLSI, M100]. […] Mueller Hinton broth (MHB) medium was used to grow ESKAPES panel strains. The individual cultures were added as 200 μL (inoculum of 3–7 × 10^5 cfu/ml) to the respective assay plates in each well to all columns, except the media control (200 μL of medium). […] The assay plates were incubated at 37 °C, and the results were noted on the 2nd day as turbidometric readout. The clear wells indicated inhibition of growth, while the turbid wells indicated uninhibited growth.

Enterococcus faecium = experiment: MIC ESKAPES panel, Enterococcus faecium; format: cell-based; conditions: Enterococcus faecium
Description: as §2

[5] = test system: non-replicating cells of Mtb H37Rv; format: cell-based, Mycobacterium tuberculosis; conditions: three replicate columns
Mtb H37Rv = experiment: Minimum bactericidal concentration (MBC), Mtb H37Rv; format: cell-based, Mycobacterium tuberculosis; conditions: Mycobacterium tuberculosis, H37RV

Compound: CO[C@H](c1ccccc1)[C@@H]1NC(=O)[C@H](C)NC(=O)[C@H](C[C@@H](C)CO)N(C)C(=O)[C@H](Cc2cn(Cc3cn(CCOCCn4cc(Cn5cc(C[C@@H]6NC(=O)[C@H](C(C)C)NC(=O)[C@H](CC(C)C)N(C)C(=O)[C@H](C(C)C)NC(=O)[C@H]([C@H](OC)c7ccccc7)NC(=O)[C@H](C)NC(=O)[C@H](C[C@@H](C)CO)N(C)C6=O)c6ccccc65)nn4)nn3)c3ccccc23)NC(=O)[C@H](C(C)C)NC(=O)[C@H](CC(C)C)N(C)C(=O)[C@H](C(C)C)NC1=O [Compound 6]
- Papp A→B (in vitro; Caco-2, CACO permeability PEAB): < 2.6 ×10⁻⁶ cm/s
- Papp A→B (in vitro; Caco-2, Caco-2 permeability P (A-B)): < 1.7 ×10⁻⁶ cm/s
- Papp B→A (in vitro; Caco-2, Caco-2 permeability P (B-A), basolateral to apical): 2.4 ×10⁻⁶ cm/s
- Caco-2 Int. Perm (Caco-2 monolayers): 2.1 10-6 cm s-1
- MIC (Msm 607; Mycolicibacterium smegmatis, 607, read-out: MIC Msm 607): 2.3 ± 0.9 µM (≈ 4.69 µg/mL)
- koff ([1]; SPR dissociation rate constant, read-out: koff ClpC1-NTD Mean ± SD): 0.001 s⁻¹
- Kd ([1]; SPR, individual measurements (source data), read-out: KD ClpC1-NTD): 1.36 nM and 1.13 nM and 0.535 nM and 0.649 nM
- koff ClpC1-NTD ([1]; SPR, single independent measurements): 0.001 s⁻¹
- Kd ([1]; SPR, read-out: ClpC1-NTD KD Mean ± SD): 0.9 ± 0.4 nM
- 1-Dmax, single measurements ([2]; Measurement 1-4): 67.3% and 57.3% and 45.9% and 46.4%
- 1-Dmax (percent substrate remaining at maximal degradation) ([2]; mean of the measurements, read-out: 1-Dmax, Mean): 54%
- DC50 ([2]; mean of the measurements, read-out: DC50, Mean): 5800 nM
- Hepatocyte Human [3]: 12 %Qh
- MIC ([4]; Mycobacterium tuberculosis, M. tuberculosis H37Rv strain, read-out: MIC Mtb H37Rv Mean ± SD): 0.4 ± 0.3 µM (≈ 0.815 µg/mL)
- MIC ([4]; Mycobacterium tuberculosis, Mtb H37Rv (Supplementary Table 2), read-out: MIC Mtb): 0.4 ± 0.3 µM (≈ 0.815 µg/mL)
- MIC ([4]; individual measurements (source data), read-out: Mtb MIC): 0.390 µM and 0.780 µM and 0.097 µM and 0.195 µM

Compound: COc1c(N2C[C@@H]3CCCN[C@@H]3C2)c(F)cc2c(=O)c(C(=O)O)cn(C3CC3)c12 [Moxifloxacin, reference compound]
- MIC (µg/ml) Mycobacterium avium (Mycobacterium avium; Experiment 2, three replicate columns): 1 µg/mL (≈ 2.49 µM)
- MIC (Mycobacterium avium; Experiment 2, three replicate columns, read-out: MIC (µM) Mycobacterium avium): 2.49 µM
- MIC (Mycobacterium avium; Mycobacterium avium, Experiment 1, read-out: MIC Mycobacterium avium): 2.49 µM and 1 µg/mL
- MIC (Mycobacterium avium; Mycobacterium avium, Experiment 2, three replicate columns, read-out: MIC (µM) Mycobacterium avium): 2.49 µM
- MIC (Mycobacterium avium; Mycobacterium avium, Experiment 2, three replicate columns, read-out: MIC (µg/ml) Mycobacterium avium): 1 µg/mL
- MIC (Mycobacterium avium; Mycobacterium avium, mean ± SD, read-out: MIC Mycobacterium avium): 2.5 µM
- MIC (Msm 607; Mycolicibacterium smegmatis, 607, read-out: MIC Msm #607, individual example (Supplementary Table 11)): 0.1 µM and 0.1 µg/mL
- MIC (Msm 607; Mycolicibacterium smegmatis, ATCC607, Set-3, done at a different day than Set 1 and Set 2, read-out: MIC (Msm ATCC607) Set-3): 0.15 µM and 0.06 µg/mL
- MIC (Msm 607; Mycolicibacterium smegmatis, ATCC607, mean of 3 experiments ± SD, read-out: MIC including standard deviations (Msm ATCC607)): 0.015 µM and 0.06 µg/mL
- MIC (Msm 607; Mycolicibacterium smegmatis, ATCC607, read-out: MIC (Msm ATCC607) Set-1): 0.15 µM and 0.06 µg/mL
- MIC (Msm 607; Mycolicibacterium smegmatis, ATCC607, read-out: MIC (Msm ATCC607) Set-2): 0.15 µM and 0.06 µg/mL
- MIC (Enterobacter cloacae; Gram negative, n = 3 well replicates): 0.3 µM (≈ 0.12 µg/mL)
- MIC (Enterobacter cloacae; Gram-Negative Bacteria, replicates 1-3): 0.31 µM and 0.125 µg/mL
- MIC (Enterococcus faecium; Gram positive, n = 3 well replicates): 79.7 µM (≈ 32 µg/mL)
- MIC (Enterococcus faecium; Gram-Positive Bacteria, replicates 1-3): 79.7 µM and 32 µg/mL
- Supplementary Figure 2 dose-response value, starvation-induced non-replicating H37Rv cells ([5]; Conc. 0.0488281 µM): 96.0307 and 94.5408 and 97.6321
- Supplementary Figure 2 dose-response value, starvation-induced non-replicating H37Rv cells ([5]; Conc. 0.0976562 µM): 87.2508 and 88.414 and 86.3824
- Supplementary Figure 2 dose-response value, starvation-induced non-replicating H37Rv cells ([5]; Conc. 0.195312 µM): 85.0837 and 87.4102 and 85.2989
- Supplementary Figure 2 dose-response value, starvation-induced non-replicating H37Rv cells ([5]; Conc. 0.390625 µM): 85.4263 and 85.2112 and 85.8964
- Supplementary Figure 2 dose-response value, starvation-induced non-replicating H37Rv cells ([5]; Conc. 0.78125 µM): 82.9485 and 82.598 and 80.152
- Supplementary Figure 2 dose-response value, starvation-induced non-replicating H37Rv cells ([5]; Conc. 1.5625 µM): 77.7618 and 79.2358 and 77.6503
- Supplementary Figure 2 dose-response value, starvation-induced non-replicating H37Rv cells ([5]; Conc. 3.125 µM): 77.3794 and 79.3075 and 79.2756
- Supplementary Figure 2 dose-response value, starvation-induced non-replicating H37Rv cells ([5]; Conc. 6.25 µM): 72.6389 and 74.9414 and 71.1889
- Supplementary Figure 2 dose-response value, starvation-induced non-replicating H37Rv cells ([5]; Conc. 25 µM): 59.9471 and 62.2337 and 59.4213
- Supplementary Figure 2 dose-response value, starvation-induced non-replicating H37Rv cells ([5]; Conc. 50 µM): 60.21 and 62.4647 and 60.935
- Supplementary Figure 2 dose-response value, starvation-induced non-replicating H37Rv cells ([5]; Conc. 100 µM): 55.7882 and 57.6844 and 55.7723
- MBC (Mtb H37Rv; individual example, read-out: MBC Mtb H37Rv): 0.3 µM and 0.1 µg/mL
- MBC (Mtb H37Rv; read-out: MBC (from Set 3) Mtb H37Rv): 0.13 µg/mL and 0.31 µM
- MIC ([4]; M. tuberculosis H37Rv 27294, single well replicates, read-out: MIC): 0.16 µM (≈ 0.0642 µg/mL)
- MIC ([4]; Mycobacterium tuberculosis, M. tuberculosis H37Rv 27294, single well replicates, read-out: MIC): 0.16 µM (≈ 0.0642 µg/mL)
- MIC ([4]; Mycobacterium tuberculosis, Mtb H37Rv, mean ± SD, n = 3 well replicates, read-out: MIC): 0.2 µM (≈ 0.0803 µg/mL)
- MIC ([4]; Mycobacterium tuberculosis, Set 1, read-out: MIC (Mtb H37Rv) Set 1): 0.07 µM and 0.03 µg/mL
- MIC ([4]; Mycobacterium tuberculosis, Set 2, read-out: MIC (Mtb H37Rv) Set 2): 0.15 µM and 0.06 µg/mL
- MIC ([4]; Mycobacterium tuberculosis, Set 3, done at a different day than Set 1 and Set 2, read-out: MIC (Mtb H37Rv) Set 3): 0.07 µM and 0.03 µg/mL
- MIC ([4]; Mycobacterium tuberculosis, individual example (Supplementary Table 11), read-out: MIC Mtb H37Rv): 0.1 µM and 0.03 µg/mL
- MIC ([4]; Mycobacterium tuberculosis, mean of 3 experiments +/- SD, unit taken from the sets above in the same table, read-out: MIC data (Mtb H37Rv) (+/- SD)): 0.1 µM and 0.04 µg/mL
